Data: article PMC12441774, “Proteolytic stabilization of a spider venom peptide results in an orally active bioinsecticide” (Pest Management Science, 2025)
Bridges are numbered along the chain shown (N, C = ends). Where no end group is shown, it is not given here.

Experiments:
Musca domestica = assay: Insecticidal activity by injection into adult house flies; type: in vivo; details: for Insecticidal LD50, injection, M. domestica (95% CI): adult house flies 12–18 mg, 0.5 μL into dorsal thorax, mortality 24 h post‐injection, 10 flies per treatment, at least triplicate, four‐parameter sigmoidal fit
Description: Adult house flies (Musca domestica L.) were immobilized with CO2 gas and those with an average weight of 12–18 mg were selected for injection. Purified solutions of Ta1b and variants were diluted in water and injected into the dorsal thorax with a 1‐cc syringe and 30‐gauge needle using a hand microapplicator (Burkard, Rickmansworth, England). Each adult was injected with 0.5 μL of solution with 10 flies per treatment in at least triplicate. Water was used as a negative control. Flies were placed into a container with moist filter paper and scored for mortality 24 h post‐injection. Ten non‐injected flies were placed in a container to assess CO2 mortality. Response curves were fitted with a four‐parameter sigmoidal function (GraphPad Prism, Boston, MA) to determine LD50 values.
(§1) To compare the potency of Ta1b, we also injected the following active ingredients into M. domestica and H. zea: GS‐ω/κ (Spear, Vestaron), spinosad (Monterey Garden Insect Spray, Monterey), thiamethoxam (Optigard® Flex, Syngenta), and chlorantraniliprole (ALTACOR®, FMC).

Helicoverpa zea = assay: Insecticidal activity by injection into fourth instar larvae; type: in vivo; details: for Insecticidal LD50, injection, H. zea (95% CI): fourth instar larvae, 1 μL into penultimate proleg, mortality 24 h after injection, eight larvae per treatment, at least triplicate
Description: Helicoverpa zea (Boddie, 1850) larvae were reared from eggs (Benzon, Carlisle, PA) to fourth instar on general purpose lepidopteran diet (F9772, Frontier Agricultural Sciences, Newark, DE). Pre‐weighed larvae immobilized on ice were injected into their penultimate proleg as described for M. domestica with 1 μL solution and eight larvae per treatment in at least triplicate. After injection, larvae were placed in a well of a 32‐well tray filled with 5 mL lepidopteran diet. The trays were then placed in an incubator at 28° C with 16:8 h light: dark cycle and evaluated 24 h after injection for mortality.
as §1

Pieris brassicae = assay: Field trial on cabbage caterpillar on cabbage; type: in vivo; details: spinosad (Laser, 96 g product ha^−1) or Btk alone; two applications 7 days apart; four replicate plots
Description: A dose–response of U1‐AGTX‐Ta1b‐QA (Ta1b‐QA) combined with Bacillus thuringiensis subsp. kurstaki (Btk; DiPel DF®, Valent) was performed by Agricola 2000 in a randomized complete block design (RCBD) on cabbage caterpillar (Pieris brassicae L.) on cabbage in Palagiano, Italy with four replicate plots of 1 × 15 m in open‐field containing 25 plants each. Treatments included an untreated check, three rates (22, 34, 45 g AI ha^−1) of an 8.5% w/w spray‐dried sample of Ta1b‐QA together with Btk (DiPel DF®, Valent, 0.5 kg product ha^−1), and the reference standard spinosad (Laser®, Corteva, 96 g product ha^−1). Treatments were applied two times, 7 days apart, with a backpack CO2 sprayer in a spray volume of 800 L ha^−1. […] Data were analyzed by one‐way ANOVA followed by a Tukey HSD LSM test with significance set at P < 0.05 (GraphPad Prism).

[1] = Gut enzyme digestion, M. sexta gut extract; type: in vitro ADME, Manduca sexta; details: M. sexta fifth instar gut extract diluted 10× in 30 mM Tris–HCl pH 8.8, 0.5–1 mg mL^−1 peptide, HPLC, single exponential decay fit
Description: (§2) Larvae of H. zea, Spodoptera frugiperda Smith and Abbot, 1797, and Trichoplusia ni Hubner, 1802 were purchased from Benzon Research and reared to fifth instar on general purpose lepidopteran diet. Manduca sexta L. were purchased from Carolina Biological Supply (Burlington, NC) and reared to fifth instar on the supplied diet. Larvae were anesthetized on ice for 30 min, pinned on a dissection plate, and opened laterally with microdissection scissors. The foregut, midgut and hindgut were excised and washed using sterile water to remove any excess hemolymph and then transferred into a chilled 2‐mL microcentrifuge tube. The extracts were spun in a microcentrifuge at 10000 g to pellet the solids. The liquid fractions were carefully removed, sterile filtered, and stored at −80°C for future use.
(§3) For gut enzyme digestion studies, gut extract was diluted 10× with the dilution buffer (30 mM Tris–HCl, pH 8.8) and 0.5–1 mg mL^−1 of Ta1b. Samples were taken from the digestion mixture at defined timepoints and mixed with a 1:6 ratio of stop buffer (Tris–HCl pH 1–2) to halt further digest of the peptide. Samples were sterile filtered and analyzed by HPLC to determine peptide integrity and concentration.

[2] = Gut enzyme digestion, T. ni gut extract; type: in vitro ADME, Trichoplusia ni; details: pH 8.8; extract diluted ten-fold, single exponential decay fit, HPLC; read-out: Degradation half-life in T. ni gut extract
Description: as §2, §3

[3] = Gut enzyme digestion, stated jointly for three lepidopteran gut extracts; type: in vitro ADME, H. zea, S. frugiperda, T. ni; details: 10‐fold diluted gut extract, single exponential decay, followed up to 21 h
Description: as §2, §3

[4] = Circular dichroism thermal denaturation; type: physicochemical; details: CD ellipticity at 220 nm, 0.4–0.6 mg mL^−1 peptide in 10 mM sodium phosphate pH 7.0, 2°C min^−1 up to 95°C, Boltzmann sigmoidal fit, 3–4 replicates
Description: Thermal denaturation profiles were collected on a Jasco‐J1500 CD spectrophotometer in a 0.2‐cm cuvette at a peptide concentration of 0.4–0.6 mg mL^−1 in 10 mM sodium phosphate, pH 7.0. Ellipticity was monitored at 220 nm every 1°C up to 95°C at a rate of 2°C min^−1. Denaturation curves were fitted with a Boltzmann sigmoidal function (GraphPad Prism) to determine the melting point (T m) for a single replicate. 3–4 replicates were run and the calculated T m values of each variant peptide was tested for a statistically significant difference relative to the rTa1b peptide or Ta1b‐QA commercial peptide, as appropriate, using an unpaired, two‐tailed, heteroscedastic student t's test (Microsoft Excel, Redmond, WA).

[5] = Gut enzyme digestion, S. frugiperda gut extract; type: in vitro ADME, Spodoptera frugiperda; details: pH 8.8; extract diluted ten-fold, single exponential decay fit, HPLC; read-out: Degradation half-life in S. frugiperda gut extract
Description: as §2, §3

[6] = Gut enzyme digestion, H. zea gut extract; type: in vitro ADME, Helicoverpa zea; details: pH 8.8; extract diluted ten-fold, single exponential decay fit, HPLC; read-out: Degradation half-life in H. zea gut extract
Description: as §2, §3

bovine trypsin = molecular target: T1, bovine trypsin (Bos taurus, UniProt P00760); assay: Protease stability, commercial trypsin digestion; type: in vitro ADME; details: pH 8.8, room temperature, HPLC chromatogram
T1 construct: purchased Sigma-Aldrich
T1 sequence (P00760 24-246): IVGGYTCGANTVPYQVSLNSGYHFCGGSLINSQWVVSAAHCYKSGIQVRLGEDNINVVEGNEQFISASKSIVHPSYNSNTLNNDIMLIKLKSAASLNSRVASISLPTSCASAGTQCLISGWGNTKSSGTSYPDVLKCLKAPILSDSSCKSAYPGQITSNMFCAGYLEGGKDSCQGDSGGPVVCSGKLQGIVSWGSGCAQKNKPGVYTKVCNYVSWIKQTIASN
Description: (§4) For commercial enzyme digestion studies, bovine trypsin (Sigma‐Aldrich, St. Louis, MO) was prepared at a concentration of 1 mg mL^−1 in 50 mM Tris–HCl pH 8.8, 100 mM NaCl. Bovine chymotrypsin (Sigma‐Aldrich) was prepared at a concentration of 1 mg ml^−1 in 50 mM MES pH 6.0, 100 mM NaCl. For each digestion condition, 5 μL of trypsin or chymotrypsin solution were added to 200 μL of 10.7 mg mL^−1 peptide and incubated at room temperature. Samples were taken at defined timepoints, sterile filtered, and analyzed immediately by HPLC.

[7] = Protease stability, commercial trypsin digestion; type: in vitro ADME, bovine; details: bovine trypsin 1 mg mL^−1 in 50 mM Tris–HCl pH 8.8, 100 mM NaCl; 5 μL added to 200 μL of 10.7 mg mL^−1 peptide; room temperature; HPLC; read-out: Degradation half life, Trypsin
Description: as §4

H. zea neonates = assay: Insecticidal activity by foliar spray (lettuce leaf disk feeding); type: in vivo, Helicoverpa zea
Description: Organic romaine lettuce was cut into 30‐mm diameter disks and sterilized with a 140‐ppm bleach solution followed by a triple rinse in water. The lettuce disks were then sprayed on either side using a Potter Tower Sprayer (Burkard, Rickmansworth, England) with insecticidal solutions, allowing them to dry between sprays. Once fully sprayed and dried, disks were placed into an arena, which was a 32‐well rearing tray containing 5 mL of 1% w/v agar. One leaf disk was placed in each well and a single neonate H. zea was applied to each of the 12 leaf discs per treatment with four experimental replicates per treatment. The trays were then placed in a 28° C incubator with a 16:8 h light: dark cycle. Mortality was evaluated 4 days after application.

Myzus persicae = assay: Greenhouse trial on green peach aphids on cucumbers; type: in vivo; details: Admire Pro 0.088 L product ha^−1; four applications
Description: Contact activity of Ta1b‐QA on green peach aphids (Myzus persicae (Sulzer, 1776)) on cucumbers in the greenhouse was performed in cooperation with A.C.D.S Research in North Rose, NY. The study was a randomized complete block design (RCBD), with treatments replicated six times, plots consisting of three pots each containing two to three plants. […] Treatments were applied four times, at 6–8‐day intervals, with a backpack CO2 sprayer in a spray volume of 374 L ha^−1. The number of aphids per plant was counted at regular intervals (0, 4, 11, 17, 23 and 29 d after first application). Cumulative insect‐days (defined as the area under the insect population curve as a measure of pest pressure) were calculated based on those six rating dates, then converted to % control relative to the untreated check using Abbott's formula. One replicate was removed due to a lack of pest pressure in the untreated check. Data were analyzed by one‐way ANOVA followed by a Tukey HSD LSM test with significance set at P < 0.05 (GraphPad Prism).

[8] = injection, Supplementary Figure 4
[9] = injection, Supplementary Table 1

| Compound | Insecticidal LD50, injection, M. domestica (95% CI) (Musca domestica) | Insecticidal LD50, injection, H. zea (95% CI) (Helicoverpa zea) | Mean % control of larvae relative to the untreated check, comparators (Pieris brassicae) | Degradation half life, Gut extract [1] | half-life ([1]; read-out: Degradation half life, Gut extract) | LD50 against house flies (Musca domestica; [8]) | Housefly LD50 (95%CI) (Musca domestica; [9]) | half-life [2] | Degradation half‐lives in gut extracts from H. zea, S. frugiperda, and T. ni [3] | LD50 against H. zea (Helicoverpa zea; [8]) | H. zea LD50 (95%CI) (Helicoverpa zea; [9]) | Melting temperature Tm (± SEM) [4] | half-life [5] | half-life [6] | Digestion by bovine trypsin (HPLC) (bovine trypsin) | half-life at 10.4 mg mL^-1 [7] | Day 4 mortality of H. zea on treated lettuce leaves, peptide alone (H. zea neonates; 100 μg cm^−2, neonates, compared to untreated) | Day 4 mortality of H. zea on treated lettuce leaves, peptide in combination with Btk (H. zea neonates; 100 μg cm^−2 peptide with sublethal Btk 0.17 μg cm^−2, neonates) | Mean % control of cumulative insect‐days relative to the untreated check, reference standard (Myzus persicae) |
| --- | --- | --- | --- | --- | --- | --- | --- | --- | --- | --- | --- | --- | --- | --- | --- | --- | --- | --- | --- |
| spinosad | 1.5 (0.9–2.4) nmol g^−1 | 0.20 (0.14–0.31) nmol g^−1 | 57.8% |  |  |  |  |  |  |  |  |  |  |  |  |  |  |  |  |
| EPDEICRARMTNKEFTYKSNVCNNCGDQVAACEAECFRNDVYTACHEAQKG (disulfide 6-36, 22-32, 25-45) [Ta1b] | 0.27 (0.23–0.32) nmol g^−1 | 2.4 (1.7–3.4) nmol g^−1 |  | under 2 min | 1.4 min | 310 pmol/g | 0.27 (0.23-0.32) pmol/g | 38.1 min | 0.5 to 2 h | 2560 pmol/g | 2.4 (1.7-3.4) pmol/g | 73.7 ± 0.4 °C | 26.4 min | 118 min | resulted in digestion of the peptide | 288 min | no activity | no activity |  |
| O=[N+]([O-])NC1=NCCN1Cc1ccc(Cl)nc1 [imidacloprid] |  |  |  |  |  |  |  |  |  |  |  |  |  |  |  |  |  |  | 90.4% |
